Earlier results, collected in patent EP4772635A1, “RNAI AGENT TARGETING APP AND PHARMACEUTICAL USE THEREOF” (Tuojie Biotech (Shanghai) Co., Ltd., priority 2023, dated 2025).

Details: octanol-water partition coefficient, illustrative values in the definitions

logKow | Compound
about 0.7 | NCCCCCCO [6-aminohexanol]
10.7 | CC(C)CCC[C@@H](C)[C@H]1CC[C@H]2[C@@H]3CC=C4C[C@@H](OC(=O)NCCCCCCO)CC[C@]4(C)[C@H]3CC[C@]12C [cholesteryl N-(hexan-6-ol)carbamate]
